Data taken from PubChem BioAssay AID179 (DTP/NCI, 2004).
The source made the active and inactive calls.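 The calls were made as follows: active = compounds giving half or more protection of infected cells from virus-caused growth loss, again on retest; inactive = the rest.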

System: CEM cells HIV-1 protection, formazan growth assay
Experiment: NCI AIDS Antiviral Assay
Details: for IC50: measured here: growth of uninfected CEM cells
In short: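 Human CEM cells, uninfected and HIV-1-infected, received five drug concentrations, and growth was read by soluble formazan assay. Compounds giving at least 50% protection were retested; reproducible 100% protection defined confirmed active.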

COC(=O)C1=C(O)C(C(=O)OC)C2(C3CC=CC3)C(C(=O)OC)=C(O)C(C(=O)OC)C12 (stereo unspecified)
EC50: > 214 µM
IC50: > 214 µM

CC1CCC2C(C(=O)O[C@H]3C4C=CO[C@@H](OC5OC(CO)C(O)C(O)C5O)C4[C@@]4(CO)O[C@@H]34)=CO[C@@H](OC3OC(CO)C(O)C(O)C3O)C12 (stereo partly specified)
EC50: > 200 µM
IC50: > 200 µM

COc1ccc2c(c1OC)C1CCCCC1SCC2=O (stereo unspecified)
EC50: > 200 µM
IC50: 105 µM

CC(O)CC[P+](c1ccccc1)(c1ccccc1)c1ccccc1 (stereo unspecified)
EC50: > 200 µM
IC50: 4.27 µM

Cc1cccc(N=C2NC(=O)C(CC(=O)Nc3ccc(Cl)cc3C)S2)c1 (stereo unspecified)
EC50: > 18.6 µM
IC50: > 18.6 µM

C=C1C2CC[C@@]3(CC[C@@H]4[C@@]5(C)CCC[C@@]4(CN4CCO[C@H]45)[C@@H]3C2)[C@@H]1O
outcome: inactive

CC12C3C4C1C1C2C3C41CO (stereo unspecified)
EC50: > 200 µM
IC50: > 200 µM

NC(=O)C(N)C(F)c1ccccc1 (stereo unspecified)
EC50: > 200 µM
IC50: > 200 µM

O=C(N=Nc1cc(Cl)ccc1Cl)NNc1cc(Cl)ccc1Cl
EC50: > 200 µM
IC50: 11.2 µM

NP(=O)(OCC1=CC(=O)c2ccccc2C1=O)N(CCBr)CCBr (stereo unspecified)
outcome: inactive

Oc1cccc(C(O)CNC2CCCCC2)c1 (stereo unspecified)
EC50: > 200 µM
IC50: > 200 µM

CC(C)(C)n1c(=O)n(-c2ccccc2)n(C(C)(C)C)c1=O
EC50: > 200 µM
IC50: > 200 µM

C#CC(O)CS(=O)(=O)c1ccccc1 (stereo unspecified)
EC50: > 100 µM
IC50: > 100 µM

O=C(Cc1ccccc1[N+](=O)[O-])C(CO)c1ccccc1[N+](=O)[O-] (stereo unspecified)
EC50: > 110 µM
IC50: > 110 µM

O=C(O)c1cc2ccccc2c(Br)c1O.O=[N+]([O-])C1CCC(O)C2[N-]CCCC21.[Cu+]
EC50: > 200 µM
IC50: 3.39 µM

C=CCCC(=O)CC(=O)OC
EC50: > 1580 µM
IC50: > 1580 µM

CCO[Si](C)(OCC)OCC
EC50: > 200 µM
IC50: > 200 µM

Cc1cc(C)c(O)c(CN2CCN(C(C)C)CCN(C(C)C)CC2)c1
EC50: > 47.9 µM
IC50: 13.8 µM

O=C1OC(c2ccccc2)=N/C1=C/C=C/c1ccco1
outcome: inactive

C[C@@H](COCP(=O)(O)O)n1cnc2c(N)ncnc21
EC50: > 200 µM
IC50: > 200 µM

COc1ccc(-c2cc(-c3ccccc3)c3ccccc3n2)c(OC)c1OC
EC50: > 200 µM
IC50: > 200 µM

O=[N+]([O-])c1cnn(C2=CNc3ccccc3N=C2)c1
EC50: > 7.41 µM
IC50: > 7.41 µM

C#C[C@@]1(O)CCCC2=CC(=O)C[C@]21C
outcome: inactive

CC[C@H](CCCC[C@H]1CC[C@@H]2CC(=O)C[C@H]12)OC
EC50: > 200 µM
IC50: 117 µM

CCC(CC)(CC(=O)O)CC(=O)O
outcome: inactive

COc1cc(/C=C/c2ccc(/C=C/c3cc(OC)c(OC)c(OC)c3)cc2)cc(OC)c1OC
outcome: inactive

CC/C(Cl)=N\OC(=O)Nc1ccc(F)c(Cl)c1
outcome: inactive

O=S(=O)(NCCSSCCNS(=O)(=O)c1ccc(F)cc1)c1ccc(F)cc1
EC50: > 200 µM
IC50: 8.91 µM

COC(=O)[C@@]12C(=O)C(C)C(=O)[C@]1(C)C(C)=C[C@H]1[C@]3(C=O)CC[C@H](OC(C)=O)C(C)(C)[C@H]3CC[C@@]12C (stereo partly specified)
EC50: > 200 µM
IC50: 97.7 µM

CCOC(=O)c1c(NCc2ccccc2)n(-c2ccccc2)c(=S)n(-c2ccccc2)c1=O
EC50: > 40.7 µM
IC50: 30.2 µM

COC(=O)/C=C(\C)C(=O)N(C)c1ccccc1I
EC50: > 200 µM
IC50: 123 µM

CCOC(=O)c1ccccc1NN1C(=O)C=CC1=O
EC50: > 347 µM
IC50: 52.5 µM

CN1CCC2CC1c1ccn(C)c1C2=O (stereo unspecified)
EC50: > 1230 µM
IC50: > 1230 µM

CCCCN(C(=O)c1ccccc1)C1CCC(=O)c2[nH]c3ccccc3c21 (stereo unspecified)
EC50: > 200 µM
IC50: 17 µM

CS/C(=N\N=C(/C)c1ccccn1)SS/C(=N/N=C(\C)c1ccccn1)SC
EC50: > 2 µM
IC50: 0.00741 µM

N#Cc1ccc(C2OCC3CC=CCC3CO2)cc1 (stereo unspecified)
EC50: > 53.7 µM
IC50: > 53.7 µM

Cc1ccc(-n2c(=S)[nH]c3ccc(C)cc3c2=O)cc1
EC50: > 25.7 µM
IC50: > 25.7 µM

O=C(NCc1ccc(Cl)cc1)c1cc2sccc2nc1C(F)(F)F
EC50: 93.3 µM
IC50: > 200 µM

Cc1cccc(NC(=O)C(=O)C(C(=O)c2ccccc2F)C2OC(=O)c3ccccc32)c1Cl (stereo unspecified)
EC50: > 204 µM
IC50: 12 µM

O=C(Nc1ccc(Cl)c(C(F)(F)F)c1)C(=O)c1c(O)c2ccccc2oc1=O
EC50: > 229 µM
IC50: 191 µM

O=[N+]([O-])c1ccc(C2CC(c3ccccc3)=Nc3ccccc3S2)cc1 (stereo unspecified)
EC50: > 35.5 µM
IC50: 5.75 µM

COC1OC2COC(C)(C)OC2C(OC(C)=O)C1NC(=O)N(CCCl)N=O (stereo unspecified)
EC50: > 229 µM
IC50: > 229 µM

Clc1nssc1=Nc1nonc1-c1ccccc1
EC50: > 200 µM
IC50: 5.5 µM

COC(CN(C)C(=S)Nc1cccc2ccccc12)OC
EC50: > 200 µM
IC50: 79.4 µM
